According to PubChem BioAssay AID330 (DTP/NCI, 2004):
“And” between values parts separate entries of the source, which are not always exact repeats. Equal values may be shown once. Inconclusive results and toxic doses are left out. How the source made its calls: active means survival T/C of 150% or more; inactive means T/C below 125% in these data.

Tested on: P388 leukemia ip, CD2F1 mice, survival T/C
Assay: NCI In Vivo Anticancer Drug Screen. Data for tumor model P388 Leukemia (intraperitoneal) in CD2F1 (CDF1) mice
Details: endpoint: median survival time, higher = longer survival
Summary of the method: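 Mice carrying the transplanted tumor received test compound or vehicle. Survival was recorded in each group, and the value is the treated-group measurement divided by that of the vehicle-treated control group.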

[1] = dose: 50.0 mg/kg/injection, schedule: Q01DX005 (ip), vehicle: Klucel (hydroxypropylcellulose) (HPC)
[2] = dose: 100.0 mg/kg/injection, schedule: Q01DX005 (ip), vehicle: Klucel (hydroxypropylcellulose) (HPC)
[3] = dose: 200.0 mg/kg/injection, schedule: Q01DX005 (ip), vehicle: Klucel (hydroxypropylcellulose) (HPC)
[4] = dose: 60.0 mg/kg/injection, schedule: Q01DX005 (ip), vehicle: saline with Tween-80
[5] = dose: 120.0 mg/kg/injection, schedule: Q01DX005 (ip), vehicle: saline with Tween-80
[6] = dose: 50.0 mg/kg/injection, schedule: Q01DX009 (ip), vehicle: saline with Tween-80
[7] = dose: 100.0 mg/kg/injection, schedule: Q01DX009 (ip), vehicle: saline with Tween-80
[8] = dose: 25.0 mg/kg/injection, schedule: Q01DX009 (ip), vehicle: saline with Tween-80
[9] = dose: 50.0 mg/kg/injection, schedule: Q01DX005 (ip), vehicle: saline with Tween-80

Measured: T/C

COc1cc(CC2C(CO)OC(=O)C2Cc2ccc3c(c2)OCO3)cc(OC)c1OC (stereo unspecified)
inactive: dose: 50.0 mg/kg/injection, schedule: Q04DX002 (ip), vehicle: acetone 98 % of control | dose: 100.0 mg/kg/injection, schedule: Q04DX002 (ip), vehicle: acetone 98 % of control | dose: 200.0 mg/kg/injection, schedule: Q04DX002 (ip), vehicle: acetone 98 % of control

CCOC(=O)N(NC(=O)c1ccc(N(CCCl)CCCl)cc1)C(C)=O
inactive: dose: 3.13 mg/kg/injection, schedule: Q01DX009 (ip), vehicle: other 103 % of control | dose: 6.25 mg/kg/injection, schedule: Q01DX009 (ip), vehicle: other 100 % of control | dose: 12.5 mg/kg/injection, schedule: Q01DX009 (ip), vehicle: other 101 % of control | dose: 25.0 mg/kg/injection, schedule: Q01DX009 (ip), vehicle: other 111 % of control | dose: 50.0 mg/kg/injection, schedule: Q01DX009 (ip), vehicle: other 111 % of control and 114 % of control | dose: 88.0 mg/kg/injection, schedule: Q01DX009 (ip), vehicle: other 110 % of control | dose: 133.0 mg/kg/injection, schedule: Q01DX009 (ip), vehicle: other 112 % of control

O=C(CCS(=O)O)c1ccccc1
inactive: dose: 100.0 mg/kg/injection, schedule: Q04DX002 (ip), vehicle: saline 101 % of control | dose: 200.0 mg/kg/injection, schedule: Q04DX002 (ip), vehicle: saline 100 % of control | dose: 400.0 mg/kg/injection, schedule: Q04DX002 (ip), vehicle: saline 94 % of control

COc1cc(OC)c2c(c1)Oc1cc(OC)cc(OC)c1C2
inactive: [1] 97 % of control | [2] 96 % of control | [3] 95 % of control

CCOC(=O)CNCc1cccnc1
inactive: dose: 12.5 mg/kg/injection, schedule: Q04DX003 (ip), vehicle: saline 103 % of control | dose: 25.0 mg/kg/injection, schedule: Q04DX003 (ip), vehicle: saline 106 % of control and 94 % of control | dose: 50.0 mg/kg/injection, schedule: Q04DX003 (ip), vehicle: saline 100 % of control and 103 % of control | dose: 100.0 mg/kg/injection, schedule: Q04DX003 (ip), vehicle: saline 104 % of control and 94 % of control | dose: 200.0 mg/kg/injection, schedule: Q04DX003 (ip), vehicle: saline 97 % of control

CCCCCCC(/C=C/c1ccc(Cl)c(Cl)c1)=N\Nc1c(Cl)cccc1Cl
inactive: dose: 50.0 mg/kg/injection, schedule: Q01DX009 (ip), vehicle: Klucel (hydroxypropylcellulose) (HPC) 91 % of control | dose: 100.0 mg/kg/injection, schedule: Q01DX009 (ip), vehicle: Klucel (hydroxypropylcellulose) (HPC) 91 % of control | dose: 200.0 mg/kg/injection, schedule: Q01DX009 (ip), vehicle: Klucel (hydroxypropylcellulose) (HPC) 87 % of control

CCCCC(CC)CS(=O)(=O)OCCCCOS(=O)(=O)CC(CC)CCCC (stereo unspecified)
inactive: [1] 101 % of control | [2] 105 % of control | [3] 108 % of control

OCC1=C(CO)CC=CC1
inactive: [4] 96 % of control | [5] 96 % of control | dose: 240.0 mg/kg/injection, schedule: Q01DX005 (ip), vehicle: saline with Tween-80 95 % of control

Cc1ccc2c(c1)=N/C(=N/c1[nH]c(O)c3ccccc13)N=2
inactive: [6] 100 % of control and 96 % of control | [7] 99 % of control

O=c1c(CO)c(-c2ccccc2)sc2ccccc12
inactive: dose: 60.0 mg/kg/injection, schedule: Q01DX005 (ip), vehicle: Klucel (hydroxypropylcellulose) (HPC) 96 % of control | dose: 120.0 mg/kg/injection, schedule: Q01DX005 (ip), vehicle: Klucel (hydroxypropylcellulose) (HPC) 97 % of control | dose: 240.0 mg/kg/injection, schedule: Q01DX005 (ip), vehicle: Klucel (hydroxypropylcellulose) (HPC) 95 % of control

CCCCOC1OCN(C(C)(C)C)CC1(C)C (stereo unspecified)
inactive: [8] 101 % of control | [6] 100 % of control | [7] 113 % of control | dose: 200.0 mg/kg/injection, schedule: Q01DX009 (ip), vehicle: saline with Tween-80 111 % of control

Cc1cc(N/N=C/c2cccc3ccccc23)c2cc3c(cc2n1)OCO3
inactive: dose: 6.25 mg/kg/injection, schedule: Q01DX005 (ip), vehicle: Klucel (hydroxypropylcellulose) (HPC) 95 % of control | dose: 12.5 mg/kg/injection, schedule: Q01DX005 (ip), vehicle: Klucel (hydroxypropylcellulose) (HPC) 100 % of control | dose: 25.0 mg/kg/injection, schedule: Q01DX005 (ip), vehicle: Klucel (hydroxypropylcellulose) (HPC) 112 % of control

CCN(CC)CCNc1ccc(COC(C)=O)c2sc3ccccc3c(=O)c12
inactive: dose: 6.25 mg/kg/injection, schedule: Q01DX005 (ip), vehicle: saline with Tween-80 109 % of control and 123 % of control | dose: 12.5 mg/kg/injection, schedule: Q01DX005 (ip), vehicle: saline with Tween-80 121 % of control | [9] 118 % of control

Cc1nn(C(=O)c2ccccn2)c(-c2ccccc2)c1N=Nc1ccc(S(=O)(=O)Nc2ncccn2)cc1
inactive: [4] 102 % of control | [5] 100 % of control

COc1c(C(C)C)ccc2c1CCC1=C3COC(=O)C3CCC12C (stereo unspecified)
inactive: dose: 6.25 mg/kg/injection, schedule: Q01DX009 (ip), vehicle: DMSO 109 % of control | dose: 12.5 mg/kg/injection, schedule: Q01DX009 (ip), vehicle: DMSO 99 % of control | dose: 25.0 mg/kg/injection, schedule: Q01DX009 (ip), vehicle: DMSO 97 % of control

CC(=O)O[C@@H]1CO[C@H]2O[C@H]3[C@@H](C(C=O)=C[C@H](O)[C@@H]4C5=C(C(C)C)CC[C@]5(C)CC[C@@]34C)[C@@]2(O)C1=O
inactive: dose: 0.39 mg/kg/injection, schedule: Q01DX009 (ip), vehicle: Klucel (hydroxypropylcellulose) (HPC) 94 % of control | dose: 0.78 mg/kg/injection, schedule: Q01DX009 (ip), vehicle: Klucel (hydroxypropylcellulose) (HPC) 104 % of control | dose: 3.12 mg/kg/injection, schedule: Q01DX009 (ip), vehicle: Klucel (hydroxypropylcellulose) (HPC) 107 % of control and 114 % of control | dose: 6.25 mg/kg/injection, schedule: Q01DX009 (ip), vehicle: Klucel (hydroxypropylcellulose) (HPC) 115 % of control and 121 % of control

CC1(C)OC2C(COC(=O)Oc3ccccc3)OC(n3cnc4c(=S)nc[nH]c43)C2O1 (stereo unspecified)
inactive: [8] 95 % of control | dose: 25.0 mg/kg/injection, schedule: Q04DX003 (ip), vehicle: saline with Tween-80 105 % of control | [6] 95 % of control | dose: 50.0 mg/kg/injection, schedule: Q04DX003 (ip), vehicle: saline with Tween-80 110 % of control | [7] 95 % of control | dose: 100.0 mg/kg/injection, schedule: Q04DX003 (ip), vehicle: saline with Tween-80 100 % of control

Cc1ccc(S(=O)(=O)OCC(OS(=O)(=O)c2ccc(C)cc2)C2OC3OC(C)(C)OC3C2O)cc1 (stereo unspecified)
inactive: [9] 103 % of control | dose: 100.0 mg/kg/injection, schedule: Q01DX005 (ip), vehicle: saline with Tween-80 97 % of control | dose: 200.0 mg/kg/injection, schedule: Q01DX005 (ip), vehicle: saline with Tween-80 96 % of control

CC(C)=CCC1=C(C)C(=O)C(C)=C(C)C1=O
inactive: dose: 12.5 mg/kg/injection, schedule: Q01DX009 (ip), vehicle: distilled water + Tween-80 + alcohol 100 % of control | dose: 25.0 mg/kg/injection, schedule: Q01DX009 (ip), vehicle: distilled water + Tween-80 + alcohol 98 % of control | dose: 50.0 mg/kg/injection, schedule: Q01DX009 (ip), vehicle: distilled water + Tween-80 + alcohol 100 % of control | dose: 100.0 mg/kg/injection, schedule: Q01DX009 (ip), vehicle: distilled water + Tween-80 + alcohol 98 % of control | dose: 200.0 mg/kg/injection, schedule: Q01DX009 (ip), vehicle: distilled water + Tween-80 + alcohol 86 % of control

CCCCCCC(/C=C/c1ccc(Cl)c(Cl)c1)=N\NC(=O)C(N)=O
inactive: dose: 50.0 mg/kg/injection, schedule: Q01DX009 (ip), vehicle: saline 101 % of control | dose: 100.0 mg/kg/injection, schedule: Q01DX009 (ip), vehicle: saline 101 % of control | dose: 200.0 mg/kg/injection, schedule: Q01DX009 (ip), vehicle: saline 110 % of control
